Measured values from US20260183297A1, “SELECTION OF PATIENTS FOR THE TREATMENT OF FADS1-MEDIATED DISEASES OR DISORDERS USING FADS-1 INHIBITORS” (AMGEN INC., priority 2022, published 2026).

Assay: Plasma PUFA measurement (LC-MS/MS)
Format: in vivo, mouse
Conditions: for FADS1 activity 20:4n-6/20:3n-6 / FADS2 activity 18:3n-6/18:2n-6: DIO mice plasma ratio; for FADS1 activity 20:4n-6/20:3n-6 / FADS2 activity 18:3n-6/18:2n-6 / Adrenic acid 22:4 n-6 / Alpha-Linolenic acid 18:3 n-3 / Arachidonic acid 20:4 n-6 / Dihomo-gamma-Linolenic acid 20:3 n-6 / Docosahexaenoic acid 22:6 n-3 / Eicosapentaenoic acid 20:5 n-3 / Eicosatetraenoic acid 20:4 n-3 / Gamma-Linoleic acid 18:3 n-6 / Linoleic acid 18:2 n-6: mean ± SD; for Adrenic acid 22:4 n-6 / Alpha-Linolenic acid 18:3 n-3 / Arachidonic acid 20:4 n-6 / Dihomo-gamma-Linolenic acid 20:3 n-6 / Docosahexaenoic acid 22:6 n-3 / Eicosapentaenoic acid 20:5 n-3 / Eicosatetraenoic acid 20:4 n-3 / Gamma-Linoleic acid 18:3 n-6 / Linoleic acid 18:2 n-6: DIO mice plasma; for Adrenic acid AdA 22:4 n-6 / Arachidonic acid AA 20:4 n-6 / Decosahexaenoic acid DHA 22:6 n-3 / Dihomo-γ-Linolenic acid DGLA 20:3 n-6 / Eicosapentaenoic acid EPA 20:5 n-3 / Eicosatetraenoic acid ETA 20:4 n-3 / Linoleic acid LA 18:2 n-6 / α-Linolenic acid ALA 18:3 n-3 / γ-Linoleic acid GLA 18:3 n-6: plasma of Compound A-treated mice; for FADS1 activity AA/DGLA 20:4n-6/20:3n-6 / FADS2 activity GLA/LA 18:3n-6/18:2n-6: plasma ratio, Compound A-treated mice
Procedure: Ten microliter of plasma or PUFA standards diluted in surrogate matrix (60 g/l bovine serum albumin in Dulbecco's phosphate-buffered saline [DPBS]) were mixed with 10 μl of ALA-d14 as the internal stand in a 96-well plate. 100 μl of 2N NaOH was added to the mixture for subsequent saponification at 65° C. for 1 hour. The mixture was then acidified with 50 μl of formic acid followed by two consecutive 500 μl hexane extractions. The organic extracts from the two extractions were combined and the solvent was evaporated under nitrogen gas. […] The PUFA peak areas were quantified by using the Analyst software (SCIEX, Framingham, MA).

SMILES: COc1ccn2c(=O)c(-c3cnn(CC(F)(F)C(F)(F)F)c3)c(C(F)(F)F)nc2c1 [Compound A, 8-methoxy-3-(1-(2,2,3,3,3-pentafluoropropyl)-1H-pyrazol-4-yl)-2-(trifluoromethyl)-4H-pyrido[1,2-a]pyrimidin-4-one]
- FADS1 activity 20:4n-6/20:3n-6 (10 mg kg^−1, 46 or 54 days): 0.06 ± 0.01
- FADS2 activity 18:3n-6/18:2n-6 (10 mg kg^−1, 46 or 54 days): 0.018 ± 0.002
- FADS1 activity 20:4n-6/20:3n-6 (30 mg kg^−1, 46 or 54 days): 0.05 ± 0.01
- FADS2 activity 18:3n-6/18:2n-6 (30 mg kg^−1, 46 or 54 days): 0.014 ± 0.003
- Adrenic acid 22:4 n-6 (10 mg kg^−1, 46 or 54 days): 1.0 ± 0.1 µg/mL
- Alpha-Linolenic acid 18:3 n-3 (10 mg kg^−1, 46 or 54 days): 0.9 ± 0.3 µg/mL
- Arachidonic acid 20:4 n-6 (10 mg kg^−1, 46 or 54 days): 16.1 ± 3.2 µg/mL
- Dihomo-gamma-Linolenic acid 20:3 n-6 (10 mg kg^−1, 46 or 54 days): 281.3 ± 34.6 µg/mL
- Docosahexaenoic acid 22:6 n-3 (10 mg kg^−1, 46 or 54 days): 93.5 ± 11.8 µg/mL
- Eicosapentaenoic acid 20:5 n-3 (10 mg kg^−1, 46 or 54 days): 0.3 ± 0.1 µg/mL
- Eicosatetraenoic acid 20:4 n-3 (10 mg kg^−1, 46 or 54 days): 2.5 ± 0.5 µg/mL
- Gamma-Linoleic acid 18:3 n-6 (10 mg kg^−1, 46 or 54 days): 3.4 ± 0.4 µg/mL
- Linoleic acid 18:2 n-6 (10 mg kg^−1, 46 or 54 days): 198.5 ± 10.5 µg/mL
- Adrenic acid 22:4 n-6 (30 mg kg^−1, 46 or 54 days): 0.8 ± 0.1 µg/mL
- Alpha-Linolenic acid 18:3 n-3 (30 mg kg^−1, 46 or 54 days): 0.7 ± 0.2 µg/mL
- Arachidonic acid 20:4 n-6 (30 mg kg^−1, 46 or 54 days): 12.5 ± 3.0 µg/mL
- Dihomo-gamma-Linolenic acid 20:3 n-6 (30 mg kg^−1, 46 or 54 days): 242.3 ± 23.4 µg/mL
- Docosahexaenoic acid 22:6 n-3 (30 mg kg^−1, 46 or 54 days): 78.2 ± 11.6 µg/mL
- Eicosapentaenoic acid 20:5 n-3 (30 mg kg^−1, 46 or 54 days): 0.3 ± 0.1 µg/mL
- Eicosatetraenoic acid 20:4 n-3 (30 mg kg^−1, 46 or 54 days): 1.9 ± 0.4 µg/mL
- Gamma-Linoleic acid 18:3 n-6 (30 mg kg^−1, 46 or 54 days): 2.8 ± 0.5 µg/mL
- Linoleic acid 18:2 n-6 (30 mg kg^−1, 46 or 54 days): 196.5 ± 24.6 µg/mL
- Adrenic acid AdA 22:4 n-6 (10 mg/kg): 1.0 ± 0.1 µg/mL
- Arachidonic acid AA 20:4 n-6 (10 mg/kg): 16.1 ± 3.2 µg/mL
- Decosahexaenoic acid DHA 22:6 n-3 (10 mg/kg): 93.5 ± 11.8 µg/mL
- Dihomo-γ-Linolenic acid DGLA 20:3 n-6 (10 mg/kg): 281.3 ± 34.6 µg/mL
- Eicosapentaenoic acid EPA 20:5 n-3 (10 mg/kg): 0.3 ± 0.1 µg/mL
- Eicosatetraenoic acid ETA 20:4 n-3 (10 mg/kg): 2.5 ± 0.5 µg/mL
- Linoleic acid LA 18:2 n-6 (10 mg/kg): 198.5 ± 10.5 µg/mL
- α-Linolenic acid ALA 18:3 n-3 (10 mg/kg): 0.9 ± 0.3 µg/mL
- γ-Linoleic acid GLA 18:3 n-6 (10 mg/kg): 3.4 ± 0.4 µg/mL
- Adrenic acid AdA 22:4 n-6 (30 mg/kg): 0.8 ± 0.1 µg/mL
- Arachidonic acid AA 20:4 n-6 (30 mg/kg): 12.5 ± 3.0 µg/mL
- Decosahexaenoic acid DHA 22:6 n-3 (30 mg/kg): 78.2 ± 11.6 µg/mL
- Dihomo-γ-Linolenic acid DGLA 20:3 n-6 (30 mg/kg): 242.3 ± 23.4 µg/mL
- Eicosapentaenoic acid EPA 20:5 n-3 (30 mg/kg): 0.3 ± 0.1 µg/mL
- Eicosatetraenoic acid ETA 20:4 n-3 (30 mg/kg): 1.9 ± 0.4 µg/mL
- Linoleic acid LA 18:2 n-6 (30 mg/kg): 196.5 ± 24.6 µg/mL
- α-Linolenic acid ALA 18:3 n-3 (30 mg/kg): 0.7 ± 0.2 µg/mL
- γ-Linoleic acid GLA 18:3 n-6 (30 mg/kg): 2.8 ± 0.5 µg/mL
- FADS1 activity AA/DGLA 20:4n-6/20:3n-6 (10 mg/kg): 0.06 ± 0.01
- FADS2 activity GLA/LA 18:3n-6/18:2n-6 (10 mg/kg): 0.018 ± 0.002
- FADS1 activity AA/DGLA 20:4n-6/20:3n-6 (30 mg/kg): 0.05 ± 0.01
- FADS2 activity GLA/LA 18:3n-6/18:2n-6 (30 mg/kg): 0.014 ± 0.003
- decrease of AA/DHA ratio (plasma, Compound A-treated mice (Table 6.1)): five-fold
